Assay results published in ChEMBL document CHEMBL1201862, “PubChem BioAssay data set” (2004).
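Briefly, cells in 96-well plates were exposed to five compound concentrations for 48 h, and endpoints were estimated by linear interpolation. GI50 = concentration required for 50% inhibition of growth.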 Calls of active or inactive are those of the source. Cut-off read from the data, not from the text of the source: active = GI50 up to about 1.1 µM and inactive = higher.

Columns and labels:
Assay in all cases: growth of human tumour cells (NCI), 48 h
BT-549 = system: BT-549
CAKI-1 = system: CAKI-1
COLO 205 = system: COLO 205
HOP-92 = system: HOP-92
KM12 = system: KM12
MOLT-4 = system: MOLT-4
NCI-H226 = system: NCI-H226
NCI-H522 = system: NCI-H522
OVCAR-3 = system: OVCAR-3
OVCAR-5 = system: OVCAR-5
OVCAR-8 = system: OVCAR-8
PC-3 = system: PC-3
RXF 393 = system: RXF 393
SF-295 = system: SF-295
SNB-19 = system: SNB-19
UO-31 = system: UO-31
HCT-15 = system: HCT-15
NCI-H460 = system: NCI-H460
SK-MEL-2 = system: SK-MEL-2
UACC-257 = system: UACC-257

Row | Structure (SMILES) | GI50 (BT-549) | GI50 (CAKI-1) | GI50 (COLO 205) | GI50 (HOP-92) | GI50 (KM12) | GI50 (MOLT-4) | GI50 (NCI-H226) | GI50 (NCI-H522) | GI50 (OVCAR-3) | GI50 (OVCAR-5) | GI50 (OVCAR-8) | GI50 (PC-3) | GI50 (RXF 393) | GI50 (SF-295) | GI50 (SNB-19) | GI50 (UO-31) | GI50 (HCT-15) [µM] | GI50 (NCI-H460) | GI50 (SK-MEL-2) | GI50 (UACC-257)
1 | CC(C)(Br)C(Br)CCC1(C(Br)CBr)CO1 (stereo not drawn) | > 10 µM (inactive) | > 10 µM (inactive) | > 10 µM (inactive) | > 10 µM (inactive) | > 10 µM (inactive) | > 10 µM (inactive) | > 10 µM (inactive) | > 10 µM (inactive) | > 10 µM (inactive) | > 10 µM (inactive) | > 10 µM (inactive) | > 10 µM (inactive) | > 10 µM (inactive) | > 10 µM (inactive) | > 10 µM (inactive) | > 10 µM (inactive) |  |  |  | 
2 | COC(=O)C1C=CN(N(C)C)C2=C1C(=O)c1c(O)cccc1C2=O (stereo not drawn) | 1.99 µM (inactive) | 2.47 µM (inactive) | 1.5 µM (inactive) |  | 2.07 µM (inactive) | 2.56 µM (inactive) | 1.87 µM (inactive) | 2.48 µM (inactive) | 0.625 µM (active) | 2.42 µM (inactive) | 2.67 µM (inactive) | 2.96 µM (inactive) | 2.79 µM (inactive) | 1.65 µM (inactive) | 2.34 µM (inactive) | 3.82 µM (inactive) | 1.51 | 1.04 µM (active) | 2.31 µM (inactive) | 1.41 µM (inactive)
3 | CCOC(=O)c1nc2cc(C(F)(F)F)ccc2nc1Nc1cc(OC)c(OC)c(OC)c1 | > 100 µM (inactive) | > 100 µM (inactive) | > 100 µM (inactive) | > 100 µM (inactive) | > 100 µM (inactive) | > 100 µM (inactive) | > 100 µM (inactive) | > 100 µM (inactive) | > 100 µM (inactive) | > 100 µM (inactive) | > 100 µM (inactive) | > 100 µM (inactive) | > 100 µM (inactive) | > 100 µM (inactive) | > 100 µM (inactive) | > 100 µM (inactive) | > 100 | > 100 µM (inactive) |  | > 100 µM (inactive)
4 | O=C(CCc1ccc(O)cc1)NCCCNC(=O)CCc1ccc(O)cc1 | > 100 µM (inactive) | > 100 µM (inactive) | > 100 µM (inactive) |  | > 100 µM (inactive) | > 100 µM (inactive) | > 100 µM (inactive) | > 100 µM (inactive) | > 100 µM (inactive) | > 100 µM (inactive) | > 100 µM (inactive) | > 100 µM (inactive) | > 100 µM (inactive) | > 100 µM (inactive) | > 100 µM (inactive) | > 100 µM (inactive) | > 100 | > 100 µM (inactive) | > 100 µM (inactive) | > 100 µM (inactive)
5 | CC(=O)OCC1OC(n2c(-c3ccc(C)cc3)cc(-c3ccccc3)c(C#N)c2=S)C(OC(C)=O)C(OC(C)=O)C1OC(C)=O (stereo not drawn) | > 100 µM (inactive) | > 100 µM (inactive) | > 100 µM (inactive) | > 100 µM (inactive) | > 100 µM (inactive) | > 100 µM (inactive) | > 100 µM (inactive) | > 100 µM (inactive) | > 100 µM (inactive) | > 100 µM (inactive) | > 100 µM (inactive) | > 100 µM (inactive) | > 100 µM (inactive) | > 100 µM (inactive) | > 100 µM (inactive) | > 100 µM (inactive) | > 100 | > 100 µM (inactive) |  | 
6 | COC(=O)c1c(C(=O)OC)c(C(c2ccccc2)c2ccccc2)n(-c2ccccc2)c1Cl | 7.16 µM (inactive) | > 10 µM (inactive) | 6.03 µM (inactive) | 9.14 µM (inactive) | 4.69 µM (inactive) | 2.24 µM (inactive) | > 10 µM (inactive) |  | 5.66 µM (inactive) | > 10 µM (inactive) | > 10 µM (inactive) | 3.09 µM (inactive) | > 10 µM (inactive) | 5 µM (inactive) | > 10 µM (inactive) | 3.81 µM (inactive) | 5.5 | > 10 µM (inactive) |  | 7.14 µM (inactive)
7 | Cc1ccc(S(=O)(=O)n2cc(C#N)c(C#N)c2)cc1 | 20.6 µM (inactive) | 26.1 µM (inactive) | 28.6 µM (inactive) | 31 µM (inactive) | 31 µM (inactive) | 31.8 µM (inactive) |  | 15.4 µM (inactive) | 22.5 µM (inactive) | 27.9 µM (inactive) | 31.8 µM (inactive) | 28.9 µM (inactive) | 32.3 µM (inactive) | 23 µM (inactive) | > 10 µM (inactive) | 26.9 µM (inactive) | 17.9 | 36.5 µM (inactive) | 24.3 µM (inactive) | 29.2 µM (inactive)
8 | Cn1c(COC(=O)NC2CCCCC2)c(COC(=O)NC2CCCCC2)c2ccc3cc(C=O)ccc3c21 | > 100 µM (inactive) | > 100 µM (inactive) | > 100 µM (inactive) | 32 µM (inactive) | > 100 µM (inactive) | > 100 µM (inactive) | > 100 µM (inactive) |  | > 100 µM (inactive) | > 100 µM (inactive) | > 100 µM (inactive) | > 100 µM (inactive) | 51.1 µM (inactive) | > 100 µM (inactive) | > 100 µM (inactive) | > 100 µM (inactive) | > 100 | > 10 µM (inactive) | > 100 µM (inactive) | > 100 µM (inactive)
9 | N#C/C(C(=O)Nc1ccc(Cl)cc1)=C(/N)N1CCCCC1 | > 100 µM (inactive) | > 100 µM (inactive) | > 100 µM (inactive) | > 100 µM (inactive) | > 100 µM (inactive) | > 100 µM (inactive) | 92.3 µM (inactive) |  | > 100 µM (inactive) | > 100 µM (inactive) | 41.2 µM (inactive) | > 100 µM (inactive) |  | 54 µM (inactive) | 36.8 µM (inactive) | 22.3 µM (inactive) | > 100 | > 100 µM (inactive) | > 100 µM (inactive) | > 100 µM (inactive)
10 | OCCN(CCO)c1ccc2c(-c3ccccc3)cc(N(CCO)CCO)nc2n1 | > 100 µM (inactive) | > 100 µM (inactive) | > 100 µM (inactive) |  | > 100 µM (inactive) | > 100 µM (inactive) | > 100 µM (inactive) | > 100 µM (inactive) | > 100 µM (inactive) | > 100 µM (inactive) | > 100 µM (inactive) | > 100 µM (inactive) | > 100 µM (inactive) | > 100 µM (inactive) | > 100 µM (inactive) | > 100 µM (inactive) | > 100 | > 100 µM (inactive) | > 100 µM (inactive) | > 100 µM (inactive)
11 | CC12CC(C#N)(C#N)C(C#N)(CO1)C(=N)O2 (stereo not drawn) | > 100 µM (inactive) | 31.8 µM (inactive) | 37.8 µM (inactive) | 52.7 µM (inactive) | > 100 µM (inactive) | 54.3 µM (inactive) | > 100 µM (inactive) |  | > 100 µM (inactive) | > 100 µM (inactive) | > 100 µM (inactive) | > 100 µM (inactive) | 59.7 µM (inactive) | > 100 µM (inactive) | > 100 µM (inactive) | > 100 µM (inactive) | 40.6 | 63.7 µM (inactive) | > 100 µM (inactive) | > 100 µM (inactive)
12 | CC(C)c1ccc(NC(=S)NC(=O)c2ccccc2)cc1 | 24.9 µM (inactive) | 20.5 µM (inactive) | 16.3 µM (inactive) | 40.9 µM (inactive) | 18.2 µM (inactive) | 13.1 µM (inactive) |  | 17.4 µM (inactive) | 18.1 µM (inactive) | 28.3 µM (inactive) | 32.3 µM (inactive) | 36.5 µM (inactive) | 18.6 µM (inactive) | 14.1 µM (inactive) | 48.4 µM (inactive) | 3.94 µM (inactive) | 17.6 | 15.5 µM (inactive) | 20 µM (inactive) | 14.8 µM (inactive)
13 | O=C(Oc1ccccc1)N1c2ccccc2[C@@]23O[C@]24CCC[C@H]3C#C/C=C\C#C[C@H]14 | 12.9 µM (inactive) | 13 µM (inactive) | 14.8 µM (inactive) | 12.3 µM (inactive) | 13.6 µM (inactive) | 0.706 µM (active) | 17.4 µM (inactive) |  | 13.3 µM (inactive) | 11.8 µM (inactive) | 11.9 µM (inactive) | 11.6 µM (inactive) | 10.1 µM (inactive) | 17.1 µM (inactive) | 15.7 µM (inactive) | 13.7 µM (inactive) | 13.2 | < 0.01 µM (active) | 11.8 µM (inactive) | 14.9 µM (inactive)
14 | O=C(Nc1nnc(-c2ccccc2)o1)C(SC(=S)N1CCOCC1)c1ccccc1 (stereo not drawn) | 22.5 µM (inactive) | 30.2 µM (inactive) | 35.6 µM (inactive) |  | 34.3 µM (inactive) | 7.98 µM (inactive) | 34.4 µM (inactive) | 23.2 µM (inactive) | 15 µM (inactive) | 25.6 µM (inactive) | 31.8 µM (inactive) | 27 µM (inactive) | 41.9 µM (inactive) | 21.8 µM (inactive) | 40.1 µM (inactive) | 13.6 µM (inactive) | 5.43 | 10.1 µM (inactive) | 16.8 µM (inactive) | 35.6 µM (inactive)
15 | O=C(O)c1ccc(N2C=[N+]3C(=Nc4ccccc43)C2)cc1 | > 100 µM (inactive) | > 100 µM (inactive) | > 100 µM (inactive) |  | > 100 µM (inactive) |  | > 100 µM (inactive) | > 100 µM (inactive) | > 100 µM (inactive) | > 100 µM (inactive) | > 100 µM (inactive) | > 100 µM (inactive) | > 100 µM (inactive) | > 100 µM (inactive) | > 100 µM (inactive) | > 100 µM (inactive) | > 100 | > 100 µM (inactive) | > 100 µM (inactive) | > 100 µM (inactive)
